Source: patent publication US10023592B2, “Bromodomain inhibitors” (Celgene Quanticel Research, Inc., priority 2013, dated 2018)
pIC50: −log10 of the molar value.

How the values were obtained:
[1] = test system: Raji, human Burkitts lymphoma cells; assay: Cell-MTS proliferation assay, Raji; assay type: cell-based; conditions: Homo sapiens, 168 hr
Experimental: (§1) The Cell-MTS assay is a 7-day plate-based colorimetric assay which quantifies the amount of newly generated NADH in the presence or absence of test compound. The NADH level is used for the quantification of cancer cell proliferation.
(§2) Established cancer cell lines with a variety of driving mutations were obtained from American Type Culture Collection (ATCC) and routinely passaged according to ATCC protocols. For routine assay, these cells were seeded at densities which enabled ˜90% confluence after 7 days of culture. Raji, human Burkitts lymphoma cells, (cMYC) were seeded at 15,000 cells per 96-well. HL-60, human proleukemia cells, (NRAS, p16, p53, c-Myc amplified) were seeded at 5,000 cells per 96-well. NCI-H460, human non-small cell lung cancer cells, (KRAS, PIK3CA, STLK11, p16) were seeded at 3,000 cells per 96-well. 24 hr after plating, cells received an 11-point dilution of test compound with final concentration ranges from 100 μM to 2.0 nM. […] At the end of this incubation period, 80 μL of media is removed and 20 μL of CellTiter 96® AQueous Non-Radioactive Cell Proliferation Assay soln (Promega) was added. The cells were incubated until the OD490 was >0.6. IC50 values were calculated using the IDBS XLfit software package and include background subtracted OD490 values and normalization to DMSO controls. Cellular proliferation IC50 values were uploaded and archived using the Chem Biography Platform.

[2] = test system: HL-60, human proleukemia cells; assay: Cell-MTS proliferation assay, HL-60; assay type: cell-based; conditions: Homo sapiens, 168 hr
Experimental: as §1, §2

[3] = molecular target: BRD4(BD1) (Homo sapiens (Human), UniProt O60885); assay: In vitro enzyme inhibition assay (BRD4 AlphaScreen); assay type: binding
Method in brief: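 His-tagged BRD4 tested by AlphaScreen for binding of biotinylated H4K5/8/12/16-tetraacetyl peptide. After 20 min at room temperature, streptavidin donor and nickel chelate acceptor beads added (5 μg/mL final each). IC50 determined.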

[4] = test system: NCI-H460, human non-small cell lung cancer cells; assay: Cell-MTS proliferation assay, NCI-H460; assay type: cell-based; conditions: Homo sapiens, 168 hr
Experimental: as §1, §2

[5] = Cell-MTS proliferation, Raji cells
[6] = Cell-MTS proliferation, HL-60 cells
[7] = in vitro enzyme inhibition assay
[8] = Cell-MTS proliferation, NCI-H460 cells
[9] = NCI-H460, Cell-MTS proliferation
[10] = Raji, Cell-MTS, class symbols A/B/C
[11] = HL-60, Cell-MTS, class symbols A/B/C
[12] = NCI-H460, Cell-MTS, class symbols A/B/C

Row | Compound | pIC50 [3, 7] | pIC50 ([1]; Raji, Cell-MTS proliferation) | pIC50 ([2]; HL-60, Cell-MTS proliferation) | pIC50 [4, 9] | other results
1 | CN(C)c1cc(-c2cc(NS(C)(=O)=O)ccc2Oc2ccc(F)cc2F)cn(C)c1=O [Example 463, N-[4-(2,4-difluorophenoxy)-3-[5-(dimethylamino)-1-methyl-6-oxopyridin-3-yl]phenyl]methanesulfonamide] | > 6.30 |  |  |  | pIC50 [1, 5]: > 6.30; pIC50 [2, 6]: > 6.30; pIC50 [4, 8]: < 5.30
2 | CCS(=O)(=O)c1ccc(OCC#CC2CC2)c(-c2cc(OC)c(=O)n(C)c2)c1 [Example 391, 5-[2-(3-cyclopropylprop-2-ynoxy)-5-ethylsulfonylphenyl]-3-methoxy-1-methylpyridin-2-one] | > 6.30 |  |  |  | pIC50 [1, 5]: 5.30 to 6.30; pIC50 [2, 6]: > 6.30; pIC50 [4, 8]: < 5.30
3 | CCS(=O)(=O)Nc1ccc(Oc2ccc(F)cc2F)c(-c2cc(C(F)(F)F)c(=O)n(C)c2)c1 [Example 138, N-[4-(2,4-difluorophenoxy)-3-[1-methyl-6-oxo-5-(trifluoromethyl)pyridine-3-yl]phenyl]ethanesulfonamide] |  |  |  |  | pIC50 [1, 10]: > 6.30; pIC50 [2, 11]: > 6.30; pIC50 ([3]; class symbols A/B/C): > 6.30; pIC50 [4, 12]: < 5.30
4 | CCS(=O)(=O)c1ccc(NCC2CC2)c(-c2cc(Cl)c(=O)n(C)c2)c1 [Example 275] |  | > 6.30 | > 6.30 | < 5.30 | 
5 | CCS(=O)(=O)Nc1ccc(Oc2ccc(F)cc2F)c(-c2cc(O)c(=O)n(C)c2)c1 [Example 451, N-[4-(2,4-difluorophenoxy)-3-(5-hydroxy-1-methyl-6-oxopyridin-3-yl)phenyl]ethanesulfonamide] | > 6.30 |  |  |  | pIC50 [2, 6]: > 6.30; pIC50 [4, 8]: < 5.30
6 | Cc1cc(-c2cc(S(N)(=O)=O)ccc2NCC2CC2)cn(C)c1=O [Example 452, 4-(cyclopropylmethylamino)-3-(1,5-dimethyl-6-oxopyridin-3-yl) benzenesulfonamide] | 5.30 to 6.30 |  |  |  | pIC50 [2, 6]: 5.30 to 6.30; pIC50 [4, 8]: < 5.30
7 | CCS(=O)(=O)c1ccc(OCC2CC2)c(-c2cn(C)c(=O)c3c2OCC(=O)N3)c1 [Example 365, 8-[2-(cyclopropylmethoxy)-5-ethylsulfonylphenyl]-6-methyl-4H-pyrido[4,3-b][1,4]oxazine-3,5-dione] |  | > 6.30 | > 6.30 | < 5.30 | 
8 | COc1cc(-c2nc(NS(C)(=O)=O)ncc2Oc2ccc(F)cc2F)cn(C)c1=O [Example 167, N-[5-(2,4-difluorophenoxy)-4-(5-methoxy-1-methyl-6-oxopyridin-3-yl)pyrimidin-2-yl]methanesulfonamide] | > 6.30 | 5.30 to 6.30 |  | < 5.30 | 
9 | Cn1cc(-c2nc(S(C)(=O)=O)ccc2OCC2CC2)c2cc(F)ccc2c1=O [Example 202, 4-[3-(cyclopropylmethoxy)-6-methylsulfonylpyridin-2-yl]-6-fluoro-2-methylisoquinolin-1-one] | > 6.30 | > 6.30 |  | < 5.30 | 
10 | Cc1cc(-c2cn(CS(C)(=O)=O)c(=O)cc2Oc2ccc(F)cc2F)cn(CC2CC2)c1=O [Example 250] |  | 5.30 to 6.30 | > 6.30 | < 5.30 | 
11 | Cn1cc(-c2cc(S(C)(=O)=O)ccc2OCC2CC2)c2cc(C(F)(F)F)ccc2c1=O [Example 197] |  | 5.30 to 6.30 |  | < 5.30 | 
12 | C#Cc1cc(-c2cc(NS(C)(=O)=O)ccc2Oc2ccc(F)cc2F)cn(C)c1=O [Example 286, N-[4-(2,4-difluorophenoxy)-3-(5-ethynyl-1-methyl-6-oxopyridin-3-yl)phenyl]methanesulfonamide] | > 6.30 | 5.30 to 6.30 |  | < 5.30 | 
13 | Cn1cc(-c2nc(NS(C)(=O)=O)ncc2Oc2ccc(F)cc2F)c2ccccc2c1=O [Example 165, N-[5-(2,4-difluorophenoxy)-4-(2-methyl-1-oxoisoquinolin-4-yl)pyrimidin-2-yl]methanesulfonamide] | > 6.30 | 5.30 to 6.30 |  | < 5.30 | 
14 | CCS(=O)(=O)Nc1ncc(Oc2ccc(F)cc2F)c(-c2cc(OC)c(=O)n(C)c2)n1 [Example 168, N-[5-(2,4-difluorophenoxy)-4-(5-methoxy-1-methyl-6-oxopyridin-3-yl)pyrimidin-2-yl]ethanesulfonamide] |  | > 6.30 | > 6.30 | < 5.30 | 
15 | COc1cc(-c2nc(CS(C)(=O)=O)ncc2Oc2ccc(F)cc2F)cn(C)c1=O [Example 146, 5-[5-(2,4-difluorophenoxy)-2-(methylsulfonylmethyl)pyrimidin-4-yl]-3-methoxy-1-methylpyridin-2-one] | > 6.30 | 5.30 to 6.30 |  | < 5.30 | 
16 | Cc1c(-c2cc(NS(C)(=O)=O)ccc2Oc2ccc(F)cc2F)cn(C)c(=O)c1C [Example 103, N-[4-(2,4-difluorophenoxy)-3-(1,4,5-trimethyl-6-oxopyridin-3-yl)phenyl]methanesulfonamide] |  |  |  |  | pIC50 [1, 10]: 5.30 to 6.30; pIC50 [2, 11]: > 6.30; pIC50 [4, 12]: < 5.30

Continued, in another order:

Row | pIC50 [3, 7] | pIC50 ([1]; Raji, Cell-MTS proliferation) | pIC50 ([2]; HL-60, Cell-MTS proliferation) | pIC50 [4, 9] | Compound | other results
17 | > 6.30 | 5.30 to 6.30 | 5.30 to 6.30 | < 5.30 | Cc1cc(-c2cc(OCCc3ccccc3)cc(S(C)(=O)=O)c2)cn(C)c1=O [Example 326, 1,3-dimethyl-5-[3-methylsulfonyl-5-(2-phenylethoxy)phenyl]pyridin-2-one] | 
18 | > 6.30 |  |  |  | CCn1cc(-c2cc(S(C)(=O)=O)ccc2NCC2CC2)cc(C)c1=O [Example 428, 5-[2-(cyclopropylmethylamino)-5-methylsulfonylphenyl]-1-ethyl-3-methylpyridin-2-one] | pIC50 [1, 5]: 5.30 to 6.30; pIC50 [2, 6]: 5.30 to 6.30; pIC50 [4, 8]: < 5.30
19 | > 6.30 | > 6.30 | > 6.30 | < 5.30 | Cn1cc(-c2cc(S(C)(=O)=O)ccc2OC2CCOCC2)c2ccccc2c1=O [Example 176, 2-methyl-4-[5-methylsulfonyl-2-(oxan-4-yloxy)phenyl]isoquinolin-1-one] | 
20 | > 6.30 | > 6.30 | > 6.30 | < 5.30 | CCCOc1ccc(S(C)(=O)=O)cc1-c1cn(C)c(=O)c2ccccc12 [Example 178, 2-methyl-4-(5-methylsulfonyl-2-propoxyphenyl)isoquinolin-1-one] | 
21 | > 6.30 |  |  |  | Cc1cc(-c2cc(S(C)(=O)=O)ccc2OCC2CC2)cn(C)c1=O [Example 476, 5-[2-(cyclopropylmethoxy)-5-methylsulfonylphenyl]-1,3-dimethylpyridin-2-one] | pIC50 [1, 5]: 5.30 to 6.30; pIC50 [2, 6]: > 6.30; pIC50 [4, 8]: < 5.30
22 | > 6.30 | 5.30 to 6.30 |  | < 5.30 | Cc1cc(-c2nc(CS(C)(=O)=O)ncc2Oc2ccc(F)cc2F)cn(C)c1=O [Example 147, 5-[5-(2,4-difluorophenoxy)-2-(methylsulfonylmethyl)pyrimidin-4-yl]-1,3-dimethylpyridin-2-one] | 
23 |  | 5.30 to 6.30 | > 6.30 | < 5.30 | CCCOc1ccc(S(C)(=O)=O)cc1-c1cn(C)c(=O)c2cnc(-c3cnn(C)c3)nc12 [Example 228] | 
24 |  | > 6.30 | > 6.30 | < 5.30 | Cc1cc(-c2cc(OS(N)(=O)=O)ccc2OCC2CC2)cn(C)c1=O [Example 215, [4-(cyclopropylmethoxy)-3-(1,5-dimethyl-6-oxopyridin-3-yl)phenyl]sulfamate] | 
25 |  | > 6.30 | > 6.30 | < 5.30 | Cn1cc(-c2cc(OS(N)(=O)=O)ccc2OCC2CC2)c2ccccc2c1=O [Example 214, [4-(cyclopropylmethoxy)-3-(2-methyl-1-oxoisoquinolin-4-yl)phenyl]sulfamate] | 
